Several values for one entry are separate records, joined by “and”; a condition that tells them apart may be missing. Equal values may be shown once.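 Exposure lasted 48 hours, with cells grown in 96-well plates and compounds tested at five concentrations. Abbreviation: GI50, concentration required for 50% inhibition of growth. TGI: total growth inhibition.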
How the values were obtained:
Assay in all cases: DTP human tumour cell line panel, 48 h
[1] = test system: HT29 colon
[2] = test system: LOX IMVI melanoma
[3] = test system: NCI-H522 lung
[4] = test system: NCI/ADR-RES ovarian
[5] = test system: SF-268 CNS
[6] = test system: SF-295 CNS
[7] = test system: SK-OV-3 ovarian
[8] = test system: SN12C renal
[9] = test system: SNB-19 CNS
[10] = test system: SW-620 colon
[11] = test system: T-47D breast
[12] = test system: UACC-62 melanoma
[13] = test system: UO-31 renal

SMILES	TGI [1]	TGI [2]	TGI [3]	GI50 [4] [µM]	TGI [4]	GI50 [5] [µM]	TGI [5]	TGI [6]	GI50 [7] [µM]	TGI [7]	TGI [8] [µM]	TGI [9]	GI50 [10] [µM]	TGI [10]	GI50 [11]	TGI [11]	GI50 [12] [µM]	TGI [12]	GI50 [13]	TGI [13]
CN(C)CCOC1(Cc2ccc(Cl)cc2Cl)CCC(C(C)(C)C)CC1 (centres undefined)	3.16 µM and 3.13 µM	2.97 µM and 3.06 µM	3.44 µM and 3.85 µM	1.99	4.52 µM and 3.12 µM	2.28	7.89 µM and 6.85 µM	3.2 µM and 3.41 µM	4.79	4.22 µM and 11 µM	3.32	3.44 µM and 3.74 µM	1.73	3.84 µM and 4.78 µM	1.92 µM and 2.09 µM	4.42 µM and 4.24 µM	3.7	3.9 µM and 9.66 µM	2.17 µM and 1.45 µM	6.27 µM and 2.83 µM
Cc1cn(CC2=NCC(C)(C)CN2)c(=O)[nH]c1=O	> 100 µM	> 100 µM	> 100 µM	–	> 100 µM	–	> 100 µM	> 100 µM	–	> 100 µM	> 100	> 100 µM	–	> 100 µM	–	> 100 µM	–	> 100 µM	–	> 100 µM
COc1ccc(-n2c3c(c4cc(O)ccc42)C(=O)c2ccccc2C3=O)cc1	18.6 µM	58 µM	> 100 µM	–	24.9 µM	–	14.8 µM	17.6 µM	–	2.73 µM	92.9	> 100 µM	–	> 100 µM	–	> 100 µM	–	25.6 µM	–	> 100 µM
CC(NC(=O)/C(C#N)=C/c1ccc2[nH]ccc2c1)c1ccccc1 (centres undefined)	31.6 µM	31.8 µM	25.7 µM	–	> 100 µM	–	42.6 µM	35.4 µM	–	40.4 µM	35	45.1 µM	–	33 µM	–	51 µM	–	31.8 µM	–	28.3 µM
C[C@@H]1C[C@@H](O)[C@@]2(O)C13CC(=O)OC(C3)[C@@H](C)[C@@]2(C)CO (some centres undefined)	> 100 µM	> 100 µM	> 100 µM	–	> 100 µM	–	> 100 µM	> 100 µM	–	> 100 µM	> 100	> 100 µM	–	> 100 µM	–	> 100 µM	–	> 100 µM	–	> 100 µM
Cc1[nH]n(-c2nc3c(c(=O)[nH]2)CCC3)c(=O)c1CCO	> 100 µM	> 100 µM	> 100 µM	–	> 100 µM	–	> 100 µM	> 100 µM	–	> 100 µM	> 100	> 100 µM	–	> 100 µM	–	> 100 µM	–	> 100 µM	–	> 100 µM
NC1=CC(C(=O)c2ccncc2)c2nc3ccccc3nc21 (centres undefined)	> 100 µM	88.1 µM	> 100 µM	–	> 100 µM	–	> 100 µM	> 100 µM	–	> 100 µM	> 100	> 100 µM	–	> 100 µM	–	> 100 µM	–	> 100 µM	–	> 100 µM
COc1cc(/C=C2/SC(c3ccccc3)N(c3ccc(Cl)cc3)C2=O)cc(OC)c1OC (centres undefined)	> 100 µM	> 100 µM	> 100 µM	–	> 100 µM	–	> 100 µM	> 100 µM	–	> 100 µM	> 100	> 100 µM	–	> 100 µM	–	> 100 µM	–	> 100 µM	–	> 100 µM
COC(=O)/C(C#N)=C1\NC(=O)CC(c2ccccc2)C1C#N (centres undefined)	> 100 µM	> 100 µM	> 100 µM	–	> 100 µM	–	> 100 µM	> 100 µM	–	> 100 µM	> 100	> 100 µM	–	> 100 µM	–	> 100 µM	–	> 100 µM	–	> 100 µM
O=C1SC(c2ccc(Cl)cc2)(c2ccc(Cl)cc2)c2ccccc21	> 100 µM	> 100 µM	> 100 µM	–	> 100 µM	–	> 100 µM	> 100 µM	–	> 100 µM	> 100	> 100 µM	–	> 100 µM	–	> 100 µM	–	> 100 µM	–	> 100 µM
CC1(C)OC(=O)C(C)(C)OC1=O	> 100 µM	> 100 µM	> 100 µM	–	> 100 µM	–	> 100 µM	> 100 µM	–	> 100 µM	> 100	> 100 µM	–	> 100 µM	–	> 100 µM	–	> 100 µM	–	> 100 µM
COC1C=C(NCC2(CO)CCC2)NC(N)=N1 (centres undefined)	> 100 µM	> 100 µM	> 100 µM	–	> 100 µM	–	> 100 µM	> 100 µM	–	> 100 µM	> 100	> 100 µM	–	> 100 µM	–	> 100 µM	–	> 100 µM	–	> 100 µM
c1ccc([C@@H]2N[C@@]3(CO[Si](c4ccccc4)(c4ccccc4)c4ccccc4)CC[C@H]4CN[C@@H]2[C@H]43)cc1	7.17 µM	24 µM	16.1 µM	–	32.4 µM	–	22.6 µM	25 µM	–	30.3 µM	27.1	31.5 µM	–	11.7 µM	–	16.7 µM	–	28.2 µM	–	22.8 µM
COc1ccc2nc3cc([N+](=O)[O-])ccc3c(NNc3ccc(Cl)cc3)c2c1	43.5 µM	> 100 µM	83.7 µM	–	> 100 µM	–	> 100 µM	> 100 µM	–	> 100 µM	98	> 100 µM	–	> 76.3 µM	–	> 100 µM	–	> 65.9 µM	–	> 100 µM

— PubChem BioAssay (NCI)
